Measured values taken from patent US7320679B2, “Therapeutic use of growth factor, and delivery device, especially for the treatment of intimal hyperplasia” (Ark Therapeutics, Ltd., priority 1996, dated 2008).
Several values for one entry are separate records, joined by “and”; a condition that tells them apart may be missing. Equal entries are not always repeated. Entries after “also recorded” stand apart in the source; their conditions may differ. Where two headings read alike, the source gives them in different places.

Experiments:
Type in all cases: cell-based, human
cPLA2 = cPLA2 mobility shift assay in HUVEC; design: effect of PD98059 on VEGF-stimulated increase in slow-migrating cPLA2: dose or concentration left out as unconfirmed
Description: (§1) Cell Culture: HUVECs were obtained either from Clonetics and cultured in the manufacturer's own medium supplemented with 2% FBS, or were grown from fresh umbilical cords by collagenase digestion and cultured on 1% gelatin-coated plates in medium 199 supplemented with 20% FCS and endothelial cell growth supplement (Wheeler-Jones et al, Biochem. J. (1996) 315:407-416). For experimental purposes, primary cultures of HUVEC were dispersed by treatment with 0.05% trypsin/0.02% EDTA for 5 min at 37° C. and then replated in either 90 mm, 60 mm or 35 mm plastic dishes, or onto 24-well plates. Cultures were maintained in a humidified atmosphere containing 5% CO2 and […] at 37° C. and used after 6-8 days or when the cells had formed a confluent monolayer. […] The PGI2 content of cell supernatants was quantified by radioimmunoassay of 6-keto-PGF1a, the stable breakdown product of PGI2 as previously described (Wheeler-Jones et al, supra). Arachidonic Acid Release: Arachidonic acid release was determined essentially as described (Domin and Rozengurt, J. Biol. Chem. (1993) 268:8927-8934.). Confluent HUVEC cultures were incubated for 24 h with [5,6,8,9,11,12,14,15-^3H]arachidonic acid (1 mCi/ml, 211 Ci/mmol). […] After treatment, the medium was removed, centrifuged in a microcentrifuge at 16,000×g for 5 min, and the radioactivity in the supernatant was determined by counting in a scintillation counter. Western Blotting Procedures: Treatment of quiescent cultures of cells with factors, and cell lysis were performed as described above and in the Results and Figure Legends. After SDS-PAGE, proteins were transferred to Immobilon membranes (Millipore Inc.). For MAP kinase assays, membranes were blocked using 5% non-fat dried milk in PBS, pH 7.2, and incubated for 3-5 h in PBS/0.05% Tween-20 containing primary antibody (1 mg/ml) as indicated. For immunoblots with antibody to cPLA2, membranes were blocked for 3 h in TBST50 mM Tris/HCl, 150 mM NaCl, 0.02% (v/v) Tween 20 pH 7.4 (TBST) containing 0.2% (w/v) 1-block (Tropix), then incubated with primary antiserum in TBST. Membranes were then washed six times (10 min each wash) in TBST and incubated for 1 hour in TBST containing HRP-conjugated secondary antibody. Immunoreactive bands were visualized by chemiluminescence using HRP-conjugated anti-mouse or anti-rabbit IgG and ECL™ reagent according to the manufacturers instructions. MAP Kinase Assay: Cells were treated with factors as indicated, washed rapidly twice with ice-cold PBS and immediately extracted by the addition of […] boiling 2×SDS-PAGE sample buffer. Cell extracts were collected by scraping, heated to 95° C. for 10 min and run on 12.5% acrylamide SDS-PAGE gels. Following transfer to Immobilon membranes, proteins were immunoblotted with an antibody which specifically recognizes p42 and p44 MAP kinases (Erk-1 and Erk-2) activated by phosphorylation at Tyr204 (Payne e al, EMBO J. (1991) 10:885-892.). cPLA2 Mobility Shift Assay: Confluent quiescent HUVECs in 60 mm dishes were washed twice in serum-free medium 199 (pH 7.4) and subsequently exposed, for the times indicated, to medium containing factors as detailed in the Figure legends. Cell lysates were prepared as previously described (Wheeler-Jones et al, supra). Proteins were separated by SDS-PAGE (10% acrylamide) and after transfer to membranes were immunoblotted with polyclonal anti-serum to cPLA2 (BorschHaubold et al, J. Biol. Chem. (1995) 270: 25885-25892; and Kramer et al, J. Biol. Chem. (1996) 271:27723-27729). Assay of vWF Secretion: vWF secretion was measured by ELISA (Wheeler-Jones et al, supra) in samples of medium obtained from confluent cultures of HUVECs which had been treated with factors, as indicated. Plates were coated with the anti-vWF mAb CLBRAg35, and the lower detection limit of the assay was approximately 1.0 mU/ml. Materials: Recombinant VEGF was obtained either from UBI or from R & D Systems. […]

p42/p44 MAP kinases = assay: MAP kinase assay (phospho-p42/p44 immunoblot) in HUVEC; design: inhibition of VEGF-stimulated MAP kinase activity: dose or concentration left out as unconfirmed
Description: as §1

PGI2 synthesis in HUVEC = assay: PGI2 assay (radioimmunoassay of 6-keto-PGF1a) in HUVEC; conditions: for mean fold increase in 6-keto PGF1a above control unstimulated level: 60 min, 60 ng/ml PIGF, 1 U/ml thrombin
Description: as §1

vWF secretion by HUVECs = assay: vWF secretion by ELISA in HUVEC; design: effect of PD98059 on VEGF-induced vWF secretion: dose or concentration left out as unconfirmed
Description: as §1

NO production in HUVEC = assay: Nitrite (NO) production in HUVEC, capillary detection method
Description: Nitrite production was measured using capillary detection method (Leone et al, in Methods in Nitric Oxide Research, Feelisch and Stanler, eds. John Wiley & Sons, New York (1996) 499-508).

[1] = system: arachidonic acid release in HUVEC; assay: Arachidonic acid release from prelabelled HUVEC
Description: as §1

HUVECs = assay: Migration of HUVECs in chemotaxis chambers; conditions: PIGF 5-60 ng/ml
[2] = system: 205 kD protein corresponding to VEGF receptor; assay: Anti-phosphotyrosine immunoprecipitation/immunoblot in HUVEC; conditions: HUVEC
Description: In some experiments, cells were pretreated for 1 h with 100 μM L-NAME and subsequently treated either with or without. […] The medium was removed and cells were rapidly lysed at 4° C. by addition of 10 mM Tris/HCl (pH 7.6), 5 mM EDTA, 50 mM NaCl, 30 mM sodium pyrophosphate, 50 mM NaF, 0.1 mM Na3VO4, 1 mM PMSF and 1% Triton X-100 (lysis buffer). Lysates were clarified by centrifugation at 15000×g for 10 min, and immunoprecipitations were performed by incubating clarified lysates with PY20 anti-phosphotyrosine mAb for 2 h at […] Immunoprecipitates were collected by incubating lysates for a further 1 hour with protein A-agarose. Immunoprecipitates were washed three times with lysis buffer and proteins were then extracted with 2×SDS-PAGE sample buffer. After SDS-PAGE, immunoprecipitated proteins were transferred to membranes and then immunoblotted with PY20 mAb.

COc1cccc(-c2cc(=O)c3ccccc3o2)c1N [PD98059, reference compound] was tested, and the “effect of PD98059 on VEGF-stimulated increase in slow-migrating cPLA2” value (cPLA2) was “completely blocked; also recorded: complete inhibition”, the “concentration reducing MAP kinase activity to control, unstimulated level” value (p42/p44 MAP kinases) was 10 to 20 mM and the “inhibition of VEGF-stimulated MAP kinase activity” value (p42/p44 MAP kinases) was “greater than 50%”. For the same molecule, the “effect of PD98059 on VEGF stimulation of p42/p44 MAP kinases” value (p42/p44 MAP kinases; 30 min pretreatment) was “completely inhibited; also recorded: complete inhibition”, the concentration of maximum inhibitory effect on stimulated PGI2 production (PGI2 synthesis in HUVEC) was 10 µM and the “effect of PD98059 on VEGF-induced PGI2 production” value (PGI2 synthesis in HUVEC; 30 mM PD98059 30 min pretreatment, 25 ng/ml VEGF 60 min) was “completely inhibited; also recorded: complete inhibition”. For the same molecule, the “effect of PD98059 on thrombin-induced PGI2 production” value (PGI2 synthesis in HUVEC; 30 mM PD98059 30 min pretreatment, 1 U/ml thrombin 60 min) was “completely inhibited”, the “inhibitor concentration at which PGI2 production fell below control values” (PGI2 synthesis in HUVEC; VEGF-treated cells) was “greater than 10 mM” and the “PGI2 production in control, unstimulated cells” value (PGI2 synthesis in HUVEC; basal) was “abolished”. For the same molecule, the “effect of PD98059 on VEGF-induced vWF secretion” value (vWF secretion by HUVECs) was “neither prevented nor significantly reduced; also recorded: no effect” and the “effect of PD98059 on basal or thrombin-stimulated vWF secretion” value (vWF secretion by HUVECs) was “no effect”.

For VEGF, the “cPLA2 mobility shift (in words)” value (cPLA2) was “marked increase in the immunoreactivity of the slow-migrating form”, the “concentration giving noticeable increase in slow-migrating cPLA2” value (cPLA2) was 2.5 ng/mL and the “concentration of maximum increase in slow-migrating cPLA2” value (cPLA2) was 5 to 10 ng/mL and 5 ng/mL. The “time at which cPLA2 shift to slow-migrating form was detectable” value (cPLA2; VEGF 25 ng/ml) was 2 min, the “time for which cPLA2 shift was sustained” value (cPLA2; VEGF 25 ng/ml) was “up to 60 min” and the “time of maximum cPLA2 shift” value (cPLA2; VEGF 25 ng/ml) was 15 min. For the same molecule, the “time for which NO production was sustained” value (NO production in HUVEC) was “up to 2 hours”, the “half-maximal effect on NO production” value (NO production in HUVEC; HUVEC, nitrite levels) was 5 ng/mL and the nitrite production level (NO production in HUVEC; VEGF 2.5 ng/ml, 10 minutes (first of two levels)) was ~19 µM. For the same molecule, the nitrite production level (NO production in HUVEC; VEGF 25 ng/ml for times up to 2 h) was 1.8 to 2 µM, the nitrite production level (NO production in HUVEC; VEGF 25 ng/ml, 10 minutes (second of two levels)) was ~2.1 µM and the “earliest time effect on NO production seen” value (NO production in HUVEC; after addition of VEGF) was 30 s. The “time of maximum NO production” value (NO production in HUVEC; after addition of VEGF) was 5 min, the “concentration of maximum arachidonic acid release” value [1] was 10 to 20 ng/mL and the “half-maximum effect on arachidonic acid release” value [1] was 2.5 to 5 ng/mL. The “mean increase in release of labelled arachidonic acid above basal unstimulated level” value [1] was 1.6 fold, the “time at which arachidonic acid release was evident” value [1] was 10 min and the “time of half-maximum arachidonic acid mobilization” value [1] was 10 min. The “time of maximum arachidonic acid release” value [1] was 30 min, the “concentration of maximum MAP kinase activation” value (p42/p44 MAP kinases; 15 min exposure) was 10 ng/mL and 5 to 10 ng/mL and the “concentration up to which maximum MAP kinase effect was sustained” value (p42/p44 MAP kinases; 15 min exposure) was “up to 50 ng/ml”. The “time for which PGI2 production was sustained” value (PGI2 synthesis in HUVEC) was “up to 2 h”, the “time up to which PGI2 production continued to increase” value (PGI2 synthesis in HUVEC) was “up to 60 min” and the “PGI2 synthesis at 25 ng/ml” value (PGI2 synthesis in HUVEC; 25 ng/ml VEGF) was “small decline”. The “mean fold increase in 6-keto PGF1a above control unstimulated level” value (“mean fold increase” for short) (PGI2 synthesis in HUVEC; 25 ng/ml VEGF) was 2.0 fold and 2 fold, the “concentration at which increase in PGI2 synthesis was detectable” value (PGI2 synthesis in HUVEC; 60 min incubation) was 5 ng/mL and the “concentration of maximum PGI2 synthesis” value (PGI2 synthesis in HUVEC; 60 min incubation) was 15 ng/mL. For the same molecule, the “half-maximal PGI2 synthesis” value (PGI2 synthesis in HUVEC; 60 min incubation) was 10 ng/mL, the “vWF secretion (in words)” value (vWF secretion by HUVECs) was “comparable to, though consistently weaker than, that of thrombin” and the “vWF level above control cells” value (vWF secretion by HUVECs; 25 ng/ml VEGF, 3 h) was 2.5 fold. The “concentration of maximum effect on vWF secretion” value (vWF secretion by HUVECs; highest concentration tested) was 25 ng/mL, the “chemotaxis of HUVECs” value (HUVECs) was “concentration-dependent increase in chemotaxis” and the “concentration range inducing tyrosine phosphorylation of 205 kDa protein” value [2] was 1 to 25 ng/mL.

For thrombin [reference compound], the “cPLA2 mobility shift (in words)” value (cPLA2) was “striking shift”, the “mean increase in release of labelled arachidonic acid above basal unstimulated level” value ([1]; four independent experiments) was 3.4 fold and the “mean fold increase” value (PGI2 synthesis in HUVEC; 25 ng/ml VEGF) was 4.4 fold.

B1: PIGF: VEGF-related factor, a specific ligand for the Flt-1 VEGF receptor; recombinant (protein)
chain: AVPPQQWALSAGNGSSEVEVVPFQEVWGRSYCRALERLVDVVSEYPSEVEHMFSPSCVSLLRCTGCCGDENLHCVPVETANVTMQLLKIRSGDRPSYVELTFSQHVRCECRPLREKMKPERCGDAVPRR
For B1, the “cPLA2 mobility shift (in words)” value (cPLA2) was “no detectable shift”, the “arachidonic acid release (in words)” value ([1]; prelabelled HUVECs) was “no detectable significant increase” and the “MAP kinase activity (in words)” value (p42/p44 MAP kinases; PIGF 1-60 ng/ml) was “little, if any, detectable increase; also recorded: little effect”. For the same molecule, the “mean fold increase” value (PGI2 synthesis in HUVEC; 25 ng/ml VEGF) was 1.3 fold, the “vWF secretion (in words)” value (vWF secretion by HUVECs) was “no detectable stimulation” and the “chemotaxis of HUVECs” value (HUVECs) was “no detectable increase”.
